Results: US8431527B2, “Methods for alleviating deleterious effects of 3-deoxyglucosone” (Fox Chase Cancer Center, priority 1997, dated 2013)

What was measured:
[1] = Locus of 3-O-methyl sorbitollysine uptake in vivo (tissue, urine, plasma recovery); parameters: species or system rats
Description: Six rats were injected intraperitoneally with […] (4.4 mg) of 3-O-methyl sorbitollysine. The rats' urine was collected for 3 hours, after which the rats were sacrificed. The tissues to be analyzed were removed and freeze clamped in liquid nitrogen. Perchloric acid extracts of the tissues were used for metabolite analysis. The tissues examined were taken from the brain, heart, muscle, sciatic nerve, spleen, pancreas, liver and kidney. Plasma and urine were also analyzed.

[2] = test system: 3DG; assay: 3-O-methyl sorbitollysine lowers plasma 3DG in diabetic and non-diabetic rats; type: in vivo; conditions: Day 8
Description: A cohort of twelve diabetic rats was divided into two groups of six. The first group received saline-only injections, and the second received injections of 3-O-methyl sorbitollysine in saline solution. The same procedure was conducted on a cohort of twelve non-diabetic rats.

[3] = Stability of FL3P in aqueous solution; type: physicochemical; conditions: degrades to 3DG, lysine and inorganic phosphate
Description: FL3P is not stable in aqueous solution. It rapidly degrades to form 3DG, lysine and inorganic phosphate. This reaction also occurs in vivo. It is not currently know if the degradation of FL3P in vivo is a spontaneous or enzyme catalyzed reaction. It is strongly suspected, however, that enzymatic catalysis is involved, as the production of 3DG from fructose lysine occurs very rapidly in intact kidney.

[4] = test system: FL3P; assay: Kidney FL3P after injection of synthetic fructose-lysine; type: in vivo; conditions: non-diabetic rats
Description: This identification was confirmed in two ways. Authentic fructose-lysine-3-phosphate (FL3P) was synthesized by the procedure disclosed in Example 2, below, and shown to co-resonate in the ^31P NMR spectrum with the peak in diabetic rat kidneys. Synthetic fructose-lysine was also injected into non-diabetic rats.

[5] = test system: kidney proteins; parameters: species or system rats; conditions: rat, in vivo
Description: Two rats were injected daily with 5 μmols. of either FL or mannitol (used as a control) for 5 days. The animals were sacrificed and the kidneys removed and dissected into the cortex and medulla. Tissues were homogenized in 5 volumes of 50 mM Tris.HCl containing 150 mM KCl, 15 mM MgCl2 and 5 mM DTT, pH 7.5. Cellular debris was removed by centrifugation at 10,000 g for 15 minutes, and the supernate was then centrifuged at 150,000 g for 70 minutes. The soluble proteins were analyzed by SDS PAGE on 12% polyacrylamide gels as well as on 4-15 and 10-20% gradient gels.

[6] = test system: lysine recovery pathway; assay: Urinary FL, 3DG and 3DF in humans following ingestion of glycated protein; type: in vivo; conditions: seven volunteers, 2 g dose of fructoselysine as glycated protein food
Description: c. Experimental protocol: Volunteers spent two days on a fructoselysine-free diet and then consumed 22.5 g of the food product prepared as described herein, thus effectively receiving a 2 g. dose of fructoselysine. Urine was collected at 2 hour intervals for 14 hours and a final collection was made at 24 hours. d. Measurement of FL, 3DG and 3DF in urine: FL was measured by HPLC with a Waters 996 diode Array using a Waters C18 Free Amino Acid column at 46° and a gradient elution system of acetonitrile-methyl alcohol-water (45:15:40) into acetonitrile-sodium acetate-water (6:2:92) at 1 ml./min. Quantitation employed an internal standard of meglumine. 3DF was measured by HPLC after deionization of the sample. Analyses were performed on a Dionex DX-500 HPLC system employing a PA1 column (Dionex) and eluting with 32 mM sodium hydroxide at 1 ml./min. Quantitation was performed from standard curves obtained daily with synthetic 3DF. 3DG was measured by GC-MS after deionization of the sample. 3DG was derivatized with a 10-fold excess of diaminonaphthalene in PBS. Ethyl acetate extraction gave a salt free fraction which was converted to the trimethyl silyl ethers with Tri-Sil (Pierce). Analysis was performed on a Hewlett-Packard 5890 selected ion monitoring GC-MS system. […] Quantitation of 3DG employed selected ion monitoring using an internal standard of U-13C-3DG.

[7] = test system: 3-deoxyglucosone; assay: Reduction of urinary and plasma 3-deoxyglucosone after intraperitoneal injection; type: in vivo; conditions: rats, 10 μmols intraperitoneal
Description: Urine was collected from six rats for three hours. A plasma sample was also obtained. The animals were then given 10 μmols of either sorbitollysine, mannitollysine, or galactitollysine by intraperitoneal injection. Urine was collected for another three hours, and a plasma sample obtained at the end of the three hours.
3-deoxyglucosone was measured in these samples, as described in Example 5, below, and variable volumes were normalized to creatinine. The average reduction of urinary 3-deoxyglucosone was 50% by sorbitollysine, 35% by mannitollysine and 35% by galactitollysine. Plasma 3-deoxyglucosone was reduced 40% by sorbitollysine, 58% by mannitolysine and 50% by galactitollysine.
c. Use of meglumine to reduce urinary 3-deoxyglucosone. Three rats were treated as in b), immediately above, except meglumine (100 μmols) was injected intraperitoneally instead of the above-mentioned lysine derivatives. Three hours after the injection the average 3-deoxyglucosone concentrations in the urine were decreased 42%.
3DG was measured by GC-MS after deionization of the sample. 3DG was derivatized with a 10-fold excess of diaminonaphthalene in PBS. Ethyl acetate extraction gave a salt free fraction which was converted to the trimethyl silyl ethers with Tri-Sil (Pierce). […] Quantitation of 3DG employed selected ion monitoring using an internal standard of U-13C-3DG.

[8] = 3 hours after intraperitoneal injection

COC(C(O)CNCCCCC(N)C(=O)O)C(O)C(O)CO (centres unmarked) [3-O-methyl Sorbitollysine, 3-O-methyl sorbitollysine]
compound present in plasma [1, 8]: plasma did not | tissue extracts containing compound (brain, heart, muscle, sciatic nerve, spleen, pancreas, liver, kidney) [1, 8]: only tissue extract found to contain 3-O-methyl sorbitollysine was that of the kidney | compound present in urine ([1]; urine collected for 3 hours): urine also contained 3-O-methyl sorbitollysine | percent reduction of plasma 3DG vs saline control ([2]; diabetic rats): 53% | percent reduction of plasma 3DG vs saline control ([2]; non-diabetic rats): 43%

NC(CCCCNCC(=O)C(OP(=O)(O)O)C(O)C(O)CO)C(=O)O (centres unmarked) [FL3P, fructose-lysine-3-phosphate]
stability in aqueous solution [3]: not stable

NC(CCCCNCC(=O)C(O)C(O)C(O)CO)C(=O)O (centres unmarked) [FL, 1-deoxy-1-(ε-aminolysine)-fructose]
levels of FL3P in kidneys following injection [4]: substantial increase | SDS PAGE of soluble kidney proteins vs mannitol-injected animal [5]: lower molecular weight bands were missing or visually reduced | time of peak urinary 3DF excretion after the FL bolus [6]: about 4 hours

galactitol lysine [galactitollysine]
plasma 3-deoxyglucosone reduced ([7]; plasma at end of three hours): 50% | average reduction of urinary 3-deoxyglucosone ([7]; urine collected three hours after vs before, normalized to creatinine): 35%
